Results reported in patent US20260035367A1 (Celgene Corporation, priority 2021, published 2026).
Where two headings read alike, the source gives them in different places.

Assays:
[1] = system: IL-2 secretion by human effector memory T cells (TEM); test: Effector memory T cells IL-2 release assay (CD3/CD28 stimulation, HTRF IL-2 detection); assay type: cell-based; conditions: Homo sapiens, T-cell, 24 h
Protocol: Test compound-mediated inhibition of NFκB signalling in T cells was assessed by quantification of the IL-2 secretion by human effector memory T cells (TEM) upon treatment and stimulation. Human TEM cells were isolated from buffy coats of healthy donors obtained from the French blood bank.
Finally, 10 doses of test compound, originally prepared in DMSO by serial semi-log step dilution, were also added to cells in triplicate wells. Final DMSO concentration in wells was 0.1% in a total volume of 100 μL complete medium. Plates were incubated for 24 h at 37° C. in 5% CO2 atmosphere. After incubation, cell suspensions were centrifuged at 400×g and culture supernatants were recovered and stored at −80° C. […] IL-2 levels were determined in cell supernatants using an HTRF human IL-2 detection kit (Cisbio, cat #62HIL02PEH).

[2] = target: T1, Recombinant human PKC-delta (His-tagged 345-676) (Homo sapiens, UniProt Q05655); test: PKC-delta inhibition assay (HTRF KinEASE kit); assay type: biochemical; conditions: ratio, PKC-theta vs PKC-delta HTRF; for PKC-theta/PKC-delta selectivity (binned): binned A to G
T1 construct: PKC-delta (His-tagged 345-676); His

[3] = target: T2, Recombinant human PKC-theta (His-tagged 362-706) (Homo sapiens, UniProt Q04759); test: PKC-theta inhibition assay (HTRF KinEASE kit); assay type: biochemical; conditions: ATP 6.5 μM, STK substrate 525 nM
T2 construct: Recombinant human PKC-theta (His-tagged 362-706); His
Protocol: PKC-theta and PKC-delta biochemical activities were measured using the PKC-theta HTRF KinEASEkit kit, according to manufacturer's instructions (Cisbio, catalogue number 61ST1PEJ). Briefly, the kinase buffer component of the kit was supplemented with 10 mM MgCl2, 1 mM DTT and 0.1% Tween 20. […] The streptavidin_XL665 and STK antibody-cryptate detection reagents were mixed according to the manufacturer's instructions. Test compounds were diluted in DMSO in a series of 10 semi-log step doses; 10 nL of each compound dose were dispensed in 384 well plates. […] The reaction was started by addition of the substrate and ATP and incubated at 25° C. for 30 minutes or 20 minutes for the PKC-theta and PKC-delta assays, respectively. The detection reagents were added, and the plate was incubated in the dark for 2 hours. […] The ratio of acceptor and donor emission signals was calculated for each well. Percent inhibition values were calculated from the HTRF ratios at different doses and fitted to a 4-parameter logistic curve to determine IC50 values (see Table 2).

[4] = binned A to G, read-out: PKC-theta IL2 pIC50 (binned) (converted)
[5] = read-out: PKC-theta IL2 pIC50 (converted)
[6] = binned A to H, read-out: PKC-theta HTRF pIC50 (binned) (converted)
[7] = read-out: PKC-theta HTRF pIC50 (converted)

T1 sequence (Q05655 345-676): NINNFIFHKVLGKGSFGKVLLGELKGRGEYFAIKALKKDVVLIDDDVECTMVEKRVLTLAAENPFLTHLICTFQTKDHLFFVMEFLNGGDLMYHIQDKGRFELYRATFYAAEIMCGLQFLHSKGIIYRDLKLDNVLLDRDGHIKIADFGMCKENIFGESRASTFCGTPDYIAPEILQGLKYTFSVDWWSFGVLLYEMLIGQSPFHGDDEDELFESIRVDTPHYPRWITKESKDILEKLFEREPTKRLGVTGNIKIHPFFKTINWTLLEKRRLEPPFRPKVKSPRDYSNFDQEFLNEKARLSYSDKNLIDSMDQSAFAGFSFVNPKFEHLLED
T2 sequence (Q04759 362-706): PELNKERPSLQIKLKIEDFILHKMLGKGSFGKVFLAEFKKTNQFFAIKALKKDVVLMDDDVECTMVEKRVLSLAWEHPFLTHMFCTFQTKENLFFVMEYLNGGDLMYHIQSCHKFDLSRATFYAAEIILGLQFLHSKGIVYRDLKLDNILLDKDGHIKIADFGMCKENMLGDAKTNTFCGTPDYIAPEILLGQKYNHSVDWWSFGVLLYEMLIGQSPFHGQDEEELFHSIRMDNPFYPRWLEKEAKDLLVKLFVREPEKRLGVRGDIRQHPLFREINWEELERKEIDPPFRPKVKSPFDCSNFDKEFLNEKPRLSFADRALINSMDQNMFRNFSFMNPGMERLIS

Compound C[C@H]1CN(c2cc(Cl)cc(-c3ccnc4c3[C@](C)(O)C(=O)N4)n2)CCN1 (single isomer, unassigned) [Example 110] has an IC50 [1, 4] of 10 to 31.6 nM, an IC50 [1, 5] of 25.1 nM and a PKC-theta/PKC-delta selectivity [2] of 16. The “PKC-theta/PKC-delta selectivity (binned)” value [2] was “D (a ratio of between 10 and 20)”, the IC50 [3, 6] was 0.316 to 1 nM and the IC50 [3, 7] was 1 nM.

With C[C@H]1CN(c2cc(Cl)cc(-c3ccnc4c3C(C)(O)C(=O)N4)n2)CCN1 (stereo partly drawn) [Example 208] the IC50 [1, 4] was 10 to 31.6 nM, the IC50 [1, 5] was 20 nM and the PKC-theta/PKC-delta selectivity [2] was 12. For the same compound, the “PKC-theta/PKC-delta selectivity (binned)” value [2] was “D (a ratio of between 10 and 20)”, the IC50 [3, 6] was 1 to 3.16 nM and the IC50 [3, 7] was 2 nM.

In the case of CC1(C)C(=O)Nc2nccc(-c3cccc(C4(CN)COC4)c3)c21 [Example 44], the IC50 [1, 4] is reported as greater than 1000 nM, the IC50 [1, 5] is reported as 10000 nM and the PKC-theta/PKC-delta selectivity [2] is reported as 4. The “PKC-theta/PKC-delta selectivity (binned)” value [2] was “F (a ratio of between 1 and 5)”, the IC50 [3, 6] was 100 to 316 nM and the IC50 [3, 7] was 200 nM.

CC[C@H]1CN(c2cccc(-c3ccnc4c3C(C)(C)C(=O)N4)c2)CCN1 [Example 51] gave an IC50 [1, 4] greater than 1000 nM, an IC50 [1, 5] of 1260 nM and a PKC-theta/PKC-delta selectivity [2] of 3. The “PKC-theta/PKC-delta selectivity (binned)” value [2] was “F (a ratio of between 1 and 5)”, the IC50 [3, 6] was 31.6 to 100 nM and the IC50 [3, 7] was 79.4 nM.

In the case of C[C@@H](O)[C@H]1CN(c2cc(C(F)(F)F)cc(-c3ccnc4c3C(C)(C)C(=O)N4)n2)CCN1 [Example 116], the IC50 [1, 4] is reported as 100 to 316 nM, the IC50 [1, 5] is reported as 126 nM and the PKC-theta/PKC-delta selectivity [2] is reported as 10. For the same compound, the “PKC-theta/PKC-delta selectivity (binned)” value [2] was “D (a ratio of between 10 and 20)”, the IC50 [3, 6] was 3.16 to 10 nM and the IC50 [3, 7] was 5.01 nM.

For COC[C@@H]1CN(c2cc(C(F)(F)F)cc(-c3ccnc4c3C(C)(C)C(=O)N4)n2)CCN1 [Example 120], the IC50 [1, 4] was 316 to 1000 nM, the IC50 [1, 5] was 501 nM and the PKC-theta/PKC-delta selectivity [2] was 15. For the same compound, the “PKC-theta/PKC-delta selectivity (binned)” value [2] was “D (a ratio of between 10 and 20)”, the IC50 [3, 6] was 10 to 31.6 nM and the IC50 [3, 7] was 25.1 nM.

CC[C@]1(O)C(=O)Nc2nccc(-c3cc(Cl)cc(N4CCN[C@@H](C)C4)n3)c21 (single isomer, unassigned) [Example 163] showed an IC50 [1, 4] of 10 to 31.6 nM, an IC50 [1, 5] of 31.6 nM and a PKC-theta/PKC-delta selectivity [2] of 10. The “PKC-theta/PKC-delta selectivity (binned)” value [2] was “D (a ratio of between 10 and 20)”, the IC50 [3, 6] was 3.16 to 10 nM and the IC50 [3, 7] was 3.98 nM.

For CC[C@@]1(O)C(=O)Nc2nccc(-c3cc(Cl)cc(N4CCN[C@@H](C)C4)n3)c21 (single isomer, unassigned) [Example 162], the IC50 [1, 4] was 316 to 1000 nM, the IC50 [1, 5] was 794 nM and the PKC-theta/PKC-delta selectivity [2] was 33. For the same compound, the “PKC-theta/PKC-delta selectivity (binned)” value [2] was “B (a ratio of between 30 and 50)”, the IC50 [3, 6] was 100 to 316 nM and the IC50 [3, 7] was 316 nM.

For C[C@H]1CN(c2cc(-c3ccnc4c3C(C)(O)C(=O)N4)cc(C(F)(F)F)c2)CCN1 (stereo partly drawn) [Example 78], the IC50 [1, 4] was 100 to 316 nM, the IC50 [1, 5] was 158 nM and the PKC-theta/PKC-delta selectivity [2] was 11. The “PKC-theta/PKC-delta selectivity (binned)” value [2] was “D (a ratio of between 10 and 20)”, the IC50 [3, 6] was 10 to 31.6 nM and the IC50 [3, 7] was 15.8 nM.

C[C@H]1CNCCN1c1cc(-c2ccnc3c2C(C)(C)C(=O)N3)ccn1 [Example 31] showed an IC50 [1, 4] greater than 1000 nM, an IC50 [1, 5] of 6310 nM and a PKC-theta/PKC-delta selectivity [2] of 1. For the same compound, the “PKC-theta/PKC-delta selectivity (binned)” value [2] was “F (a ratio of between 1 and 5)”, the IC50 [3, 6] was 316 to 1000 nM and the IC50 [3, 7] was 501 nM.

CC1(C)C(=O)Nc2ncc(Cl)c(-c3cc(F)cc(N4CCNCC4)c3)c21 [Example 79] showed an IC50 [1, 4] of 316 to 1000 nM, an IC50 [1, 5] of 794 nM and a PKC-theta/PKC-delta selectivity [2] of 2. The “PKC-theta/PKC-delta selectivity (binned)” value [2] was “F (a ratio of between 1 and 5)”, the IC50 [3, 6] was 31.6 to 100 nM and the IC50 [3, 7] was 39.8 nM.

In the case of C[C@@H]1CNC[C@@H](C)N1c1cc(C(F)(F)F)cc(-c2ccnc3c2C(C)(C)C(=O)N3)n1 [Example 180], the IC50 [1, 4] is reported as 316 to 1000 nM, the IC50 [1, 5] is reported as 631 nM and the PKC-theta/PKC-delta selectivity [2] is reported as 28. For the same compound, the “PKC-theta/PKC-delta selectivity (binned)” value [2] was “C (a ratio of between 20 and 30)”, the IC50 [3, 6] was 1 to 3.16 nM and the IC50 [3, 7] was 2 nM.

With C[C@H]1CNCCN1c1cc(C(F)(F)F)cc(-c2ccnc3c2C(C)(C)C(=O)N3)n1 [Example 101] the IC50 [1, 4] was 31.6 to 100 nM, the IC50 [1, 5] was 100 nM and the PKC-theta/PKC-delta selectivity [2] was 12. The “PKC-theta/PKC-delta selectivity (binned)” value [2] was “D (a ratio of between 10 and 20)”, the IC50 [3, 6] was 3.16 to 10 nM and the IC50 [3, 7] was 6.31 nM.
